For series [1], the system named is DSS-induced acute colitis. Briefly: DSS-induced acute colitis mouse model (Lenti-shNS or Lenti-shITG transduced). It is filed as in vivo, C57BL/6 mice. The note with it: Lenti-shNS-transduced mice. How it is done:
FIG. 8 confirms an effect of rCT-NAMPT in mice with DSS-induced acute colitis. Specifically, (A) an experimental plan for an acute colitis model treated with rCT-NAMPT (50 μg/kg) and 3% DSS after introduction of Lenti-shNS or Lenti-shITG virus (left) and the survival rates of mice monitored for 12 days (right). Mortality was measured with n=15 mice per group. Statistical differences between rVehicle treated animals were recorded (log-rank test). […] (B) confirms a change in body weight of the experimental animals during an experiment period in (A) above (n=8). (C) is a colitis score result of the experimental animals in (A) above. […] (H) Results of hematoxylin and eosin (H&E) staining of the colon (left) (n=10): Representative radiohistopathology scores were evaluated using rVehicle, rCT, or rCT-NAMPT in 3% DSS-treated mice as illustrated in techniques (Materials and Methods). Statistical significance was evaluated using a Student's t-test using Bonferroni correction (***p<0.001) in comparison to rVehicle;
(§1) Dextran sodium sulfate (DSS)-induced acute or chronic colitis mouse models were constructed using 6-week-old C57BL/6 female mice (Samtako, Osan, Korea). […] The survival of mice was tracked for 12 days, and mortality was measured for n=15 mice per group. […] The survival of mice was tracked for 9 weeks, and mortality was measured for n=15 mice per group. […]

The subject of series [2] is DSS-induced chronic colitis. In words: DSS-induced chronic colitis mouse model. Particulars: 50 μg/kg i.p. It is filed as in vivo, C57BL/6 mice. How it is done: FIG. 10 confirms an effect of rCT-NAMPT in mice with DSS-induced chronic colitis. Specifically, (A) Scheme of the chronic colitis model treated with rCT-NAMPT (50 μg/kg) and 3% DSS. (B) The survival of mice was tracked for 9 weeks, and mortality was calculated for n=15 mice per group. Statistical differences between rVehicle treated animals were recorded (log-rank test). […] (C) Weight loss of rVehicle, rCT or rCT-NAMPT treatment in mice was confirmed (n=15). (D) Image (upper) and length (lower) of colon in 3% DSS-induced chronic colitis mice with rVehicle, rCT or rCT-NAMPT. (E) H&E staining of the colon (left) (n=8): a representative image. H&E staining was used to evaluate histopathology scores in 3% DSS-induced chronic colitis mice treated with rVehicle, rCT, or rCT-NAMPT. […]
as §1
Body weight, degree of bloody stool, and stool concentration were measured every day during the colitis induction to obtain the clinical score. The clinical score was determined by two trained investigators who were not provided with information about the experiment. […]

In series [3] the test system is colonic tissues. Particulars: mice with acute colitis, intraperitoneal injection, Cy5.5 conjugate.
Description: The number of ITGA6+ or ITGB1+ cells was analyzed by FACS.
Mice were intravenously injected with a lentivirus expressing nonspecific shRNA (shNS) or shRNA specific for ITGA6 (sh ITGA6) or ITGB1 (shITGB1) 2 times and then orally administered with DSS (Acute or chronic Colitis) and rCT-NAMPT, and then experiments were performed.
Next, to evaluate the specificity of rCT-NAMPT, ITGA6- or ITGB1-knockdown mice were generated through sh-Lentiviral transduction. The mice were treated with DSS and administered rCT-NAMPT/Cy5.5 via intraperitoneal injection on day 6.

This is an account of results in US20240299505A1, “COMPOSITION FOR IMPROVING, PREVENTING OR TREATING INFLAMMATORY BOWEL DISEASE COMPRISING NAMPT-DERIVED PEPTIDE AS ACTIVE INGREDIENT” (Industry-University Cooperation Foundation Hanyang …, priority 2023, published 2024).

As to TWYKIAFQRNRK [rCT], the “survival rate / mortality” value in series [1] (3% DSS, 50 μg/kg i.p. 8 times, 12 days) is reported as “Neither rVehicle or rCT significantly affected mortality”. In series [1] (DSS), the “colon histology (H&E staining)” value is listed as “disrupted by DSS”. In series [2], the body weights entry is “Body weights fluctuated”. Besides, in series [3], the “tissue targeting (colon versus other organs)” value is “specifically targeted colonic tissues in mice with acute colitis, but not in other organs”.
